# In ChEMBL document CHEMBL4411258, “Novel natural compounds from endophytic fungi with anticancer activity” (Eur J Med Chem, 2018):
# pIC50: −log10 of the molar value.
# Assays:
# [1] = Cytotoxicity against human KATO III cells after 72 hrs by MTT assay; assay type: functional, cell-based
# [2] = test system: MCF7; assay: Cytotoxicity against human MCF7 cells after 48 hrs by sulforhodamine B assay; assay type: functional, cell-based; conditions: Homo sapiens, MCF7, 48 h
# [3] = test system: HepG2; assay: Cytotoxicity against human HepG2 cells after 48 hrs by sulforhodamine B assay; assay type: functional, cell-based; conditions: Homo sapiens, HepG2, 48 h
# [4] = test system: HepG2; assay: Cytotoxicity against human HepG2 cells by MTT assay; assay type: functional, cell-based
# [5] = test system: SH-SY5Y; assay: Cytotoxicity against human SH-SY5Y cells by MTT assay; assay type: functional, cell-based
# [6] = test system: L02; assay: Cytotoxicity against human L02 cells by MTS assay; assay type: cell-based
# [7] = test system: MCF7; assay: Cytotoxicity against human MCF7 cells after 72 hrs by MTT assay; assay type: functional, cell-based; conditions: MCF7, 72 h
# [8] = test system: A549; assay: Cytotoxicity against human A549 cells after 48 hrs by MTT assay; assay type: functional, cell-based; conditions: for pIC50: Homo sapiens, A549, 48 h, read-out: IC50
# [9] = test system: NB-4; assay: Cytotoxicity against human NB4 cells after 48 hrs by MTT assay; assay type: functional, cell-based; conditions: NB-4, 48 h
# [10] = test system: MCF7; assay: Cytotoxicity against human MCF7 cells after 48 hrs by MTT assay; assay type: functional, cell-based
# [11] = test system: SH-SY5Y; assay: Cytotoxicity against human SH-SY5Y cells after 48 hrs by MTT assay; assay type: functional, cell-based
# [12] = test system: PC-3; assay: Cytotoxicity against human PC3 cells after 48 hrs by MTT assay; assay type: functional, cell-based; conditions: PC-3, 48 h
# [13] = test system: NCI-H460; assay: Cytotoxicity against human NCI-H460 cells after 48 hrs by sulforhodamine B assay; assay type: functional, cell-based; conditions: Homo sapiens, NCI-H460, 48 h
# [14] = test system: SF-268; assay: Cytotoxicity against human SF268 cells after 48 hrs by sulforhodamine B assay; assay type: functional, cell-based; conditions: Homo sapiens, SF-268, 48 h
# [15] = test system: L5178Y; assay: Cytotoxicity against mouse L5178Y cells by MTT assay; assay type: functional, cell-based
# [16] = test system: A549; assay: Cytotoxicity against human A549 cells by MTT assay; assay type: functional, cell-based
# [17] = test system: MCF7; assay: Cytotoxicity against human MCF7 cells by MTT assay; assay type: functional, cell-based
# [18] = test system: HepG2; assay: Cytotoxicity against human HepG2 cells after 72 hrs by MTT assay; assay type: functional, cell-based; conditions: HepG2, 72 h
# [19] = test system: A549; assay: Cytotoxicity against human A549 cells after 72 hrs by MTT assay; assay type: functional, cell-based; conditions: A549, 72 h
# [20] = Homo sapiens, MCF7, 48 h, read-out: IC50
smiles,measurement,setting,value
C[C@H]1[C@@H](O)CCC(C)(C)[C@@]12CC=C(C(=O)O)CC2,pIC50,[1],4.60
Cc1cc(O)c(C(=O)c2c(C(=O)O)cc(O)c(O)c2O)c(O)c1,pIC50,[2],4.15
same,pIC50,[3],4.22
CCCCC[C@@H]1CC[C@H](C)CCCCC(=O)N[C@@H](Cc2ccc(OCC=C(C)C)cc2)C(=O)O1,pIC50,[4],4.44
COC(=O)[C@]1(Cc2ccc(O)c(CC=C(C)C)c2)OC(=O)C(O)=C1c1ccccc1,pIC50,[4],> 5.00
same,pIC50,[5],> 5.00
same,pIC50,[6],> 5.00
COc1cc(O)c2c(=O)cc(C)oc2c1[C@H](C[C@@H](OC)C(=O)O)OC,pIC50,[1],4.80
same,pIC50,[7],4.75
COc1cc2c(c3c1OC(C)(C)CC3=O)C[C@@H](C)OC2=O,pIC50,[4],5.40
same,pIC50,[6],5.42
CN1C(=O)[C@]23O[C@]4(O)[C@@H](O)C(=O)N5C(C)(C)[C@H](Cc6cccc1c62)[C@H]3[C@@]54O,pIC50,[8],5.38 to 5.92
same,pIC50,[9],5.38 to 5.92
same,pIC50,[10]; [20],5.38 to 5.92
same,pIC50,[11],5.38 to 5.92
same,pIC50,[12],5.38 to 5.92
C[C@@H](O)[C@@]1(O)C(=O)N2C(C)(C)[C@@H]3Cc4cccc5c4[C@@]4(O[C@@]1(O)[C@@]2(O)[C@H]34)C(=O)N5C,pIC50,[8],5.38 to 5.92
same,pIC50,[9],5.38 to 5.92
same,pIC50,[10]; [20],5.38 to 5.92
same,pIC50,[11],5.38 to 5.92
same,pIC50,[12],5.38 to 5.92
C[C@H]1[C@H](O)CCC(C)(C)[C@@]12CC=C(C(=O)O)CC2,pIC50,[1],4.46
CC[C@H](C)C(=O)[C@@H](C)c1c(O)c2c(c3c1SCC(=O)N3)[C@@H](O)[C@@H]1[C@@]3(C)CC[C@H](C(C)(C)O)O[C@@H]3CC[C@@]1(C)O2,pIC50,[2],4.37 to 5.19
same,pIC50,[3],4.37 to 5.19
same,pIC50,[13],4.37 to 5.19
same,pIC50,[14],4.37 to 5.19
COC(=O)[C@]1(Cc2ccc(OC)c(CC=C(C)C)c2O)OC(=O)C(O)=C1c1ccc(O)cc1,pIC50,[4],5.32
same,pIC50,[6],5.41
CC[C@H](C)C(=O)[C@@H](C)C1=CC(=O)C2=C(O[C@]3(C)CC[C@H]4O[C@@H](C(C)(C)O)CC[C@]4(C)C3=C2)C1=O,pIC50,[2],4.37 to 5.19
same,pIC50,[3],4.37 to 5.19
same,pIC50,[13],4.37 to 5.19
same,pIC50,[14],4.37 to 5.19
C/C(=C\Cc1c(O)ccc2c1C=C(CO)OC2)CO,pIC50,[8],5.06 to 5.55
same,pIC50,[9],5.06 to 5.55
same,pIC50,[10]; [20],5.06 to 5.55
same,pIC50,[11],5.06 to 5.55
same,pIC50,[12],5.06 to 5.55
COC(=O)[C@]1(Cc2cc(CC=C(C)C)c(O)c(OC)c2)OC(=O)C(O)=C1c1ccc(O)cc1,pIC50,[4],5.44
same,pIC50,[6],5.38
COc1cc(O)c2c(c1)C(=O)[C@@H]1[C@H](C[C@@H](O)[C@@](C)(O)[C@@H]1O)C2=O,pIC50,[15],5.47
COC(=O)[C@]1(Cc2ccc(O)c(CC=C(C)C)c2)OC(=O)C(O)=C1c1ccc(OC)cc1,pIC50,[4],> 5.00
same,pIC50,[5],> 5.00
same,pIC50,[6],> 5.00
COc1cc(O)c2c(c1)C(=O)C1=C(C2=O)[C@H](O)[C@@H](O)[C@@](C)(O)C1,pIC50,[15],5.03
COc1cc(OC)c2c(c1CC=C(C)C)C[C@@H](C)OC2=O,pIC50,[4],5.03
same,pIC50,[5],5.07
C[C@@H]1CC2=C(CO1)C(=O)[C@@](C)(O)[C@@H](O)C2,pIC50,[16],4.38
same,pIC50,[17],5.60
COc1cc(O)c2c(c1)C=C([C@H](O)[C@H](O)C(Cl)Cl)OC2O (stereo not given in full),IC50,[4],39.6 µg/mL
same,IC50,[17],17.8 µg/mL
Cc1cc(O)c2c(c1)C(=O)c1c(c(O)cc(O)c1-c1c(O)cc(O)c3c1C(=O)c1cc(CC(C)O)cc(O)c1C3=O)C2=O (stereo not given),IC50,[10]; [20],20.8 µg/mL
CC1=C2C(=C[C@H](O)C(O)=C2O)[C@H](C)[C@@H](C)O1,pIC50,[18],4.45
same,pIC50,[19],4.62
COc1ccc(CCCO)c2cc(CC(C)=O)oc(=O)c12,pIC50,[8],5.06 to 5.55
same,pIC50,[9],5.06 to 5.55
same,pIC50,[10]; [20],5.06 to 5.55
same,pIC50,[11],5.06 to 5.55
same,pIC50,[12],5.06 to 5.55
COc1ccc(C(CO)C(O)CO)c2oc3c(O)c(O)cc(O)c3c(=O)c12 (stereo not given),pIC50,[5],5.38
COc1cc(C)c2c(c1)oc(=O)c1c(O)cc(O[C@@H]3O[C@H](CO)[C@H](O)[C@H](O)[C@H]3O)cc12,IC50,[6],7.2 µg/mL
COC(=O)CCCN1C(=O)[C@]23O[C@]4(O)[C@@H](O)C(=O)N5C(C)(C)[C@H](Cc6cccc1c62)[C@H]3[C@@]54O,pIC50,[9],> 5.00
same,pIC50,[10]; [20],> 5.00
same,pIC50,[11],> 5.00
same,pIC50,[12],> 5.00
COc1cc(O)c2c(=O)cc(C)oc2c1[C@@H](C[C@@H](OC)C(=O)O)OC,pIC50,[1],4.77
C[C@H]1C(=O)N2c3ccccc3[C@@]3(O)C[C@H](n4cnc5ccccc5c4=O)C(=O)N1[C@@H]23,pIC50,[12],4.49
COc1cc(O)c2c(=O)c3c(O)ccc(C(CO)C(O)CO)c3oc2c1O (stereo not given),pIC50,[16],5.44
CC(C)[C@@H]1CC[C@](C)(O)C2=C1C(=O)[C@](C)(O)C[C@@H]2O,pIC50,[16],6.70
same,pIC50,[17],5.23
CC[C@H](C)c1[nH]c2c(c1C)C(=O)C1=C(C2=O)[C@@H](O)[C@@H]2[C@@]3(C)CC[C@H](C(C)(C)O)O[C@@H]3CC[C@@]2(C)O1,pIC50,[2],4.37 to 5.19
same,pIC50,[3],4.37 to 5.19
same,pIC50,[13],4.37 to 5.19
same,pIC50,[14],4.37 to 5.19
CC(=O)Cc1cc2c(CCCO)cc(O)cc2c(=O)o1,pIC50,[8],5.06 to 5.55
same,pIC50,[9],5.06 to 5.55
same,pIC50,[10]; [20],5.06 to 5.55
same,pIC50,[11],5.06 to 5.55
same,pIC50,[12],5.06 to 5.55
CC(C)=CCc1cc2c3c(c1)N(C)C(=O)[C@]31O[C@]3(O)[C@@H](O)C(=O)N4C(C)(C)[C@H](C2)[C@H]1[C@@]43O,pIC50,[8],5.38 to 5.92
same,pIC50,[9],5.38 to 5.92
same,pIC50,[10]; [20],5.38 to 5.92
same,pIC50,[11],5.38 to 5.92
same,pIC50,[12],5.38 to 5.92
COc1c(O)cc2c(c1CC=C(C)C)C=C(C)OC2,pIC50,[4],5.06
same,pIC50,[16],5.03
COC(=O)c1cccc2oc3cc(C)cc(O[C@@H]4O[C@H](CO)[C@@H](O)[C@H](O)[C@H]4O)c3c(=O)c12,IC50,[6],6.8 µg/mL
COC(=O)[C@]1(Cc2ccc(OC)c(CC=C(C)C)c2)OC(=O)C(O)=C1c1ccccc1,pIC50,[4],> 5.00
same,pIC50,[5],> 5.00
same,pIC50,[6],> 5.00
COc1c(O)cc2c(c1CC=C(C)C)C[C@@H](C)OC2=O,pIC50,[5],5.06
CC[C@@H](C)C[C@H](/C=C(\C)[C@H](O)[C@H](C)/C=C(\C)[C@H](O)[C@H](C)/C=C/[C@H](O)[C@H](C)/C=C(\C)C=O)CO,pIC50,[15],5.39
COc1ccc2c(c1CC=C(C)C)C=C(C)OC2,pIC50,[4],5.09
same,pIC50,[5],5.17
COc1cc(O)c2c(c1-c1c(OC)cc(O)c3c1C(=O)C1=C(C3=O)[C@H](O)[C@@H](OC(C)=O)[C@@](C)(O)[C@@H]1O)C(=O)C1=C(C2=O)[C@H](O)[C@@H](O)[C@@](C)(O)[C@@H]1O,pIC50,[15],4.98
COc1cc(O)c2c(=O)cc(C)oc2c1[C@@H]1C[C@@H](OC)C(=O)O1,pIC50,[1],4.63
same,pIC50,[7],4.71
CS[C@@]1(CO)C(=O)N(C)[C@@](Cc2cn([C@@]34C[C@@]5(SC)C(=O)N(C)[C@](CO)(SC)C(=O)N5[C@]3(C)Nc3ccccc34)c3ccccc23)(SC)C(=O)N1C,IC50,[10]; [20],8.3 µg/mL
CC(=O)OCC1=C[C@@H]2[C@H](CCO)[C@@]1(C)CCCC2(C)C,IC50,[8]; a549,33.2 µM
same,IC50,[10]; mcf7,19.1 µM
COc1ccc2c(c1)N(C(=O)C=C(C)C)C1C2[C@H](O)[C@@]2(O)C(=O)N3CCC[C@H]3C(=O)N2[C@H]1CC(C)(C)O (stereo not given in full),pIC50,[12],4.51
COc1ccc2c(c1C/C=C(\C)CO)C=C(CO)OC2,pIC50,[8],5.06 to 5.55
same,pIC50,[9],5.06 to 5.55
same,pIC50,[10]; [20],5.06 to 5.55
same,pIC50,[11],5.06 to 5.55
same,pIC50,[12],5.06 to 5.55
COC(=O)CCCN1C(=O)[C@@]23O[C@@]4(O)[C@@]5(O)[C@@H]2[C@@H](Cc2cccc1c23)C(C)(C)N5C(=O)[C@]4(O)[C@@H](C)O,pIC50,[8],> 5.00
same,pIC50,[9],> 5.00
same,pIC50,[10]; [20],> 5.00
same,pIC50,[11],> 5.00
COC(=O)[C@@H](C[C@@H](OC)c1c(OC)cc(O)c2c(=O)cc(C)oc12)OC,pIC50,[1],4.67
